Columns and labels:
Format in all cases: cell-based
Microsporum canis = assay: Antifungal activity in vitro, resazurin growth inhibition: Microsporum canis (B68128)
Summary of the method: (§1)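 Dermatophytes incubated at 27° C. for one week or more with compound, max 64 μM, in RPMI-1640/MOPS pH 7.0±0.1, 10^3 cfu/well. Viability by resazurin-to-resorufin fluorescence, 550/590 nm.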

[1] = tested on: Trichophyton mentagrophytes; assay: Antifungal activity in vitro, resazurin growth inhibition: Trichophyton mentagrophytes (B70554)
Summary of the method: as §1

Trichophyton rubrum = assay: Antifungal activity in vitro, resazurin growth inhibition: Trichophyton rubrum (B68183)
Summary of the method: as §1

Sporothrix schenkii = assay: Antifungal activity in vitro, resazurin growth inhibition: Sporothrix schenkii (B62482)
Summary of the method: (§2)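 Compound dilutions, with 64 μM as the highest in-test level, are spotted onto plates, then an inoculum of 10^3 cfu in RPMI-1640 plus 2% glucose (MOPS, pH 7.0±0.1) is added. Plates are incubated at species-dependent time and temperature, up to a week or more at 27° C. for dermatophytes.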

Aspergillus fumigatus = assay: Antifungal activity in vitro, resazurin growth inhibition: Aspergillus fumigatus (B42928)
Summary of the method: as §2

Candida parapsilosis = assay: Antifungal activity in vitro, resazurin growth inhibition: Candida parapsilosis (B66126)
Summary of the method: as §2

Cryptococcus neoformans = assay: Antifungal activity in vitro, resazurin growth inhibition: Cryptococcus neoformans (B66663)
Summary of the method: as §2

| Compound | Inf. B: Microsporum canis B68128, pIC50 (Microsporum canis) | Inf. G: Trichophyton mentagrophytes B70554, pIC50 [1] | Inf. C: Trichophyton rubrum B68183, pIC50 (Trichophyton rubrum) | Inf. A: Sporothrix schenkii B62482, pIC50 (Sporothrix schenkii) | Inf. E: Aspergillus fumigatus B42928, pIC50 (Aspergillus fumigatus) | Inf. D: Candida parapsilosis B66126, pIC50 (Candida parapsilosis) | Inf. F: Cryptococcus neoformans B66663, pIC50 (Cryptococcus neoformans) |
| --- | --- | --- | --- | --- | --- | --- | --- |
| Cc1ccc2cc(C3=NCc4c(F)cccc4-n4cccc43)ccc2n1 [Compound 113] | <4.19 | <4.19 | 5.86 | <4.19 | <4.19 | <4.19 | <4.19 |
| Cc1ccc2cc(C3=NCc4c(F)cc(F)cc4-n4cccc43)ccc2n1 [Compound 114] | <4.19 | <4.19 | 5.75 | <4.19 | <4.19 | <4.19 | <4.19 |
| COc1cccc2cc(C3=NCc4ccc(Cl)cc4-n4cccc43)oc12 [Compound 142] | <4.19 | <4.19 | 5.64 | <4.19 | <4.19 | <4.19 | <4.19 |
| COc1cccc2cc(C3=NCc4cccc(Cl)c4-n4cccc43)oc12 [Compound 143] | <4.19 | <4.19 | 6.11 | 5.49 | <4.19 | <4.19 | 5.20 |
| COc1ccc2oc(C3=NCc4ccc(Cl)cc4-n4cccc43)cc2c1 [Compound 147] | 5.66 | <4.19 | 5.35 | <4.19 | <4.19 | <4.19 | <4.19 |
| Clc1ccc(Cl)c2c1CN=C(c1ccc3ccoc3c1)c1cccn1-2 [Compound 151] | <4.19 | <4.19 | 4.95 | <4.19 | <4.19 | <4.19 | <4.19 |
| Fc1cccc2c1CN=C(c1ccc3occ(Cl)c3c1)c1cccn1-2 [Compound 153] | <4.19 | <4.19 | <4.19 | <4.19 | <4.19 | 5.00 | 5.16 |
| Fc1cc(F)c2c(c1)-n1cccc1C(c1ccc3occ(Cl)c3c1)=NC2 [Compound 154] | <4.19 | <4.19 | <4.19 | <4.19 | <4.19 | <4.19 | <4.19 |
| Clc1cc2cc(C3=NCc4c(Cl)cccc4-n4cccc43)ccc2o1 [Compound 155] | 6.82 | 6.82 | 7.15 | 5.66 | 5.88 | 4.94 | 5.81 |
| Clc1cccc2c1CN=C(c1ccc3c(Cl)coc3c1)c1cccn1-2 [Compound 156] | <4.19 | 4.49 | <4.19 | <4.19 | 4.48 | <4.19 | 4.51 |
| COc1cccc2cc(C3=NCc4ccccc4-n4cccc43)oc12 [Compound 157] | 5.79 | 5.96 | 6.58 | <4.49 | <4.49 | 4.61 | <4.49 |
| Cc1nc2ccc(C3=NCc4c(Cl)cccc4-n4cccc43)cc2o1 [Compound 162] | 5.23 | 5.21 | 5.61 | 4.22 | 4.36 | <4.19 | 4.49 |
| Cc1ccc(Cl)c2c1-n1cccc1C(c1cc3ccccc3s1)=NC2 [Compound 169] | 5.00 | <4.19 | 6.01 | <4.19 | <4.19 | <4.19 | <4.19 |

Other lines, results leading:

| Inf. B: Microsporum canis B68128, pIC50 (Microsporum canis) | Inf. G: Trichophyton mentagrophytes B70554, pIC50 [1] | Inf. C: Trichophyton rubrum B68183, pIC50 (Trichophyton rubrum) | Inf. A: Sporothrix schenkii B62482, pIC50 (Sporothrix schenkii) | Inf. E: Aspergillus fumigatus B42928, pIC50 (Aspergillus fumigatus) | Inf. D: Candida parapsilosis B66126, pIC50 (Candida parapsilosis) | Inf. F: Cryptococcus neoformans B66663, pIC50 (Cryptococcus neoformans) | Compound |
| --- | --- | --- | --- | --- | --- | --- | --- |
| <4.19 | <4.19 | 4.96 | <4.19 | 5.61 | <4.19 | <4.19 | Fc1cc(F)c2oc(C3=NCc4c(Cl)cc(Cl)cc4-n4cccc43)cc2c1 [Compound 129] |
| 4.59 | <4.49 | 5.54 | <4.49 | <4.49 | <4.49 | <4.49 | Cc1cccc2oc(C3=NCc4c(Cl)cccc4-n4cccc43)cc12 [Compound 132] |
| <4.19 | <4.19 | <4.19 | <4.19 | <4.19 | <4.19 | 5.83 | Cc1cccc2oc(C3=NCc4ccc(Cl)cc4-n4cccc43)cc12 [Compound 133] |
| 4.41 | <4.19 | 5.91 | <4.19 | <4.19 | <4.19 | 4.54 | Cc1ccc2oc(C3=NCc4ccc(Cl)cc4-n4cccc43)cc2c1 [Compound 135] |
| 4.41 | <4.19 | 5.67 | <4.19 | <4.19 | <4.19 | <4.19 | Cc1ccc2oc(C3=NCc4c(Cl)cc(Cl)cc4-n4cccc43)cc2c1 [Compound 136] |
| 4.46 | <4.19 | 4.40 | <4.19 | <4.19 | <4.19 | <4.19 | Cc1ccc2cc(C3=NCc4c(Cl)cc(Cl)cc4-n4cccc43)oc2c1 [Compound 139] |
| 4.81 | <4.19 | 5.11 | <4.19 | <4.19 | <4.19 | <4.19 | COc1cccc2cc(C3=NCc4c(Cl)cc(Cl)cc4-n4cccc43)oc12 [Compound 145] |
| 5.82 | 4.19 | 5.04 | <4.19 | <4.19 | <4.19 | <4.19 | COc1ccc2oc(C3=NCc4c(Cl)cc(Cl)cc4-n4cccc43)cc2c1 [Compound 148] |
| 6.41 | <4.49 | 6.46 | <4.49 | <4.49 | <4.49 | <4.49 | Clc1cc2oc(C3=NCc4c(Cl)cccc4-n4cccc43)cc2cn1 [Compound 159] |
| 5.03 | 5.48 | 5.84 | <4.49 | 5.85 | <4.49 | 5.61 | Cc1nc(Cl)cc2cc(C3=NCc4c(Cl)cccc4-n4cccc43)oc12 [Compound 160] |
| <4.19 | <4.19 | 5.73 | <4.19 | <4.19 | <4.19 | 6.50 | Fc1cccc2cc(C3=NCc4c(Cl)cc(Cl)cc4-n4cccc43)sc12 [Compound 171] |

From patent publication US9493468B2, “Antifungal 5,6-dihydro-4H-pyrrolo[1,2-a][1,4]benzo-diazepines and 6H-pyrrolo[1,2-a][1,4]benzodiazepines substituted with heterocyclic derivatives” (Janssen Pharmaceutica NV, priority 2011, dated 2016)
